The nature of experiment [1]: Inhibition of CCR5-mediated HIV-1 Bal entry in human GHOST CCR5 cells assessed as decrease in viral reverse transcriptase activity by measuring [3H]thymidine triphosphate incorporation measured after 60 to 90 mins by scintillation counting analysis.
The nature of experiment [2]: Inhibition of MOR-mediated HIV1 BaL01 infection in GFP-tagged human OPRM1 transfected TZM-bl cells co-expressing HIV1 - LTR assessed as inhibition of viral entry by measuring LTR-driven luciferase activity pretreated for 1 hr before infection measured after 2 to 3 days of infection.
Experiment [3] is described as follows: Inhibition of MOR-mediated HIV1 BaL01 infection in GFP-tagged human OPRM1 transfected TZM-bl cells co-expressing HIV1 - LTR assessed as inhibition of viral entry in presence of morphine by measuring LTR-driven luciferase activity pretreated for 1 hr before infection measured after 2 to 3 days of infection.

With `CC(C)c1nnc(CCNC(=O)COCC(=O)NCCCCCCCNC(=O)COCC(=O)N[C@@H]2CC[C@@]3(O)[C@H]4Cc5ccc(O)c6c5[C@@]3(CCN4CC3CC3)[C@H]2O6)n1C1C[C@H]2CC[C@@H](C1)N2CC[C@H](NC(=O)C1CCC(F)(F)CC1)c1ccccc1` (some centres undefined), the EC50 – broadly, the concentration at which the effect is half-maximal – in experiment [1] worked out at 93 nM; in experiment [2], 368 nM; in experiment [3], 247 nM.

For `Cc1nnc(C(C)C)n1C1C[C@H]2CC[C@@H](C1)N2CC[C@H](NC(=O)C1CCC(F)(F)CC1)c1ccc(NC(=O)COCC(=O)NCCCCCCCNC(=O)COCC(=O)N[C@@H]2CC[C@@]3(O)[C@H]4Cc5ccc(O)c6c5[C@@]3(CCN4CC3CC3)[C@H]2O6)cc1` (some centres undefined), in experiment [1], the EC50 is over 100000 nM.

Values taken from BindingDB's records for doi:10.1021/acs.jmedchem.1c00408 (Virginia Commonwealth University, 2021).
